This is an account of results in patent US20020086027A1, “Composition and method for enhancing immunological memory response” (priority 1998, published 2002).

For data set [1] the following is noted: orally administered; cited from earlier work.
Data set [2] has as its system human T cells. Nature of the data set: Response of primed cells to IL-2 or PHA. It is filed as cell-based. Particulars: for response of primed cells to PHA: primed in presence vs absence of 100 ug/ml drug. How it is done:
For priming in vitro, responder PBMCs were incubated for 72 or 144 h at a ratio of either 1:1 or 2:1 respectively, with stimulator PBMCs. Where appropriate, CsA. Aph. and/or Trental were added at the concentrations indicated, of PFA-fixed PBMCs were used instead.

The next data set has as its system CD25+ CD4 T cells. Nature of the data set: Flow cytometry of CD25 and Fas (CD95) on primed cells. It is filed as cell-based, human. How it is done:
For analysis of cell surface markers, primed cell populations separated on Ficoll-Paque gradients were used. […] Briefly, 1-3×10^5 cells per well were stained with primary antibodies at 4° C., followed by appropriately labeled secondary reagents if required. Samples were analyzed using a Bryte flow cytometer (bio-Rad, Hemel Hampstead, UK). Antibodies to the T cell markers CD3 (OKT3), CD4 (OKT4), and to the activation markers CD25 and Fas (CD95) were used for staining. To detect apoptosis using propidium iodide (PI, Sigma Chemical Co.), antibody-stained cells were fixed and permeabilized with 70% ethanol, washed, and PI […] added just before cytometric analysis. Data were analyzed using FlowJo software (Treestar, San Jose, Calif.).
The phenotype of CD4 T cells activated during priming in vitro was examined next using various markers associated with T cell activation. Antibodies against CD25 (IL-2Ra), CD26, CD45RO, CD69 and gp240 were used, but except for CD25, none of the other markers gave consistent and reliable results (data not shown). CD25 expression on CD4 T cells in the responder populations was examined in a two-color flow cytometric analysis at two separate time points,—at the end of six days of priming and after two further rest days in culture after washing and resuspension in resh medium without any stimuli. Most CD25-expressing cells in the primed cultures were CD4 T cells. […] The frequency of CD25 expression increased in the PBMC-primed responders (FIG. 17B) and this percentage was lower if POX (100 μg/ml) was present during priming (FIG. 17C). […] Similar data were observed if dbcAMP was present during priming (data not shown). It can be seen that the proportion of CD25* cells was reproducibly lower if POX was present during priming with allo-PBMCs. However, after 48 hours of rest in culture, the frequency of CD25* cells declined in the populations primed in the absence of POX, while it went up in the group primed under POX cover.

Data set [3] concerns experimental autoimmune encephalomyelitis. Conditions: rat, in vivo; cited from earlier work.
Data set [4] deals with antigen-specific T cell memory. Nature of the data set: Mice immunized with ovalbumin without adjuvant, splenic T cell recall proliferation. Conditions: POX 1 mg per mouse per day, day -1 to day 5. Type of data set: in vivo.
Method: Splenic cells were stimulated in vitro either on day 7 or on day 60 after immunization with titrated doses of ovalbumin for 4 days and pulsed with 3H-thymidine for 16 h before being harvested for scintillation spectrometry In the second system used to validate the memory-enhancing effects of POX, we have used immunization with a very poor immunogen, egg albumin without adjuvant.
For data set [5], the system named is human T cells. Nature of the data set: Primary alloproliferative response of responder PBMCs to irradiated MHC-mismatched stimulator PBMCs ([3H]thymidine incorporation). It is filed as cell-based. The protocol: In this system, we have used responses to first exposure as an indication of primary responses. When cells stimulated in this fashion are rested in culture and then restimulated with the same stimulator PBMCs, the 'recall' response measured are taken as an indication of immune memory. Proliferation is measured by the incorporation of radioactive tritiated thymidine in dividing cells. PBMCs from HLA-mismatched individuals were separated using density-gradient centrifugation on Ficoll-Paque (Pharmacia, Uppsala, Sweden). Stimulator PBMCs were used in titrated doses after g-irradiation (200 rads). For the primary proliferative alloresponses, stimulator in graded doses were used with 1-3×10^5 responders per well in 200 μl of RPMI-1640 (Life Technologies, Grand Island, N.Y.) fortified with L-glutamine (Life Technologies) and antibiotics, containing 10% heat-inactivated responder autologous serum. Cultures were incubated in a CO2 atmosphere for five days, pulsed with 0.5 uCi of (H^3)-thymidine (New England Nuclear, Boston, Mass.) for the last 8-12 hours of the assay and harvested onto glass fiber filters for counting cell-incorporated thymidine (Betaplate; Wallac, Finland). results are expressed as mean cpm±SE for triplicate cultures. Dibutyryl cyclic AMP (dbcAMP), pentoxifylline (POX), aphidicolin (all from Sigma Chemical Co., St Louis, Mo.) and recombinant IL-2 (Boehringer Manheim Corp., Manheim Germany) were added singly or together to the culture in various doses as indicated during priming and in primary alloresponse assays. […] Sigma Chemical Co.) at room temperature for 20 minutes, washed extensively and used. PBMCs from MHC-mismatched donors were used as responder-stimulator pairs. Stimulator cells were used after γ-irradiation (200 rad) at various concentrations, as shown. Proliferation assays were set up as parallel cultures and were pulsed and harvested as below on different days when necessary for the analyses of the kinetics of the response. Where appropriate, cyclosporin A (CsA, Sandoz, Milan, Italy), aphidicolin (Aph, Sigma Chemical Co., and/or pentoxifylline ([…], Sigma Chemical Co.) Were added at the concentrations indicated, or PFA-fixed PBMCs were used. The plated were pulsed with 0.5 to 1 μCi of (^3H)thymidine ([^3H]TdR. Amersham, Little Chalfont, U.K.) During the last 12 to 16 h of the assay (4 days for a recall assay and 6 days for a primary assay, unless indicated otherwise). [^3H] TdR incorporation was measured by harvesting the cultures on glass-fibers and counting in a scintillation counter (Betaplate: LKB-Pharmacia. Uppsala, […]). The results are expressed as mean cpm±SE of triplicate cultures.
For orientation: Dividing cells build labelled thymidine or BrdU into new DNA.

For `CC(=O)CCCCn1c(=O)c2c(ncn2C)n(C)c1=O` [POX, pentoxifylline], in data set [1], the LD50 result was “about 1385 milligrams per kilogram body weight”. The “response of primed cells to IL-2” value in the data set on human T cells [2] (primed in presence vs absence of 100 μg/ml Trental) is “to the same extent”. The results for the “response of primed cells to PHA” value in the data set on human T cells [2] and in the data set with human T cells [2] (listed as Trental) were “does not bring about any enhancement” and “comparable”, respectively. In addition, the “frequency of CD25 expression” value is “increased frequency” in the data set with CD25+ CD4 T cells (after two further rest days in culture without stimuli) and “lower” in the data set with CD25+ CD4 T cells (at end of six days of priming, POX 100 μg/ml). Besides, the “frequency and level of Fas expression in CD25+ population” value in the data set on CD25+ CD4 T cells (presence vs absence of POX during priming) is on record as “unchanged”. Moreover, in data set [3], the “protection against EAE” value is on record as “significant protection”. The “T cell memory recalled” value was “higher” in data set [4] (day 7 post-immunization) and “dramatically high” in data set [4] (day 60 post-immunization). Further, the primary proliferative response result with human T cells [5] (Trental 100 ug/ml added to cells on 1 μg/ml Aph) was “further decreases”; with human T cells [5] (drug 100 ug/ml present during primary alloresponse) it was “declines”; with human T cells [5] (drug 100 ug/ml present during primary alloresponse, listed as Trental) it was “reduced significantly”; with human T cells [5] (increasing doses 1-300 μg/ml, preliminary titrations), “decrease”. Moreover, the “kinetics of primary response” value in the data set with human T cells [5] (days 4-10, drugs present throughout) is reported as “declines equivalently”. Further, the “primary response after drug removal” value in the data set on human T cells [5] (drugs removed on day 6, pulsed days 8 and 10) is “no increase”. Further, the “primary response to PF-fixed PBMCs” value with human T cells [5] (stimulators fixed with 0.05% PF, POX 100 ug/ml) was “not enhanced”.
